Test results published in PubChem BioAssay (NCI).
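How tested: cells in 96-well plates exposed to compound for 48 hours at five concentrations. Abbreviation: GI50, concentration required for 50% inhibition of growth. TGI: total growth inhibition.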

Tests used:
Experiment in all cases: DTP human tumour cell line panel, 48 h
[1] = tested on: RXF 393 renal
[2] = tested on: A498 renal
[3] = tested on: UACC-257 melanoma
[4] = tested on: OVCAR-8 ovarian
[5] = tested on: RPMI-8226 leukemia
[6] = tested on: EKVX NSCLC
[7] = tested on: IGROV1 ovarian
[8] = tested on: SF-295 CNS
[9] = tested on: MALME-3M melanoma
[10] = tested on: CCRF-CEM leukemia

Compound	GI50 [1] [µM]	TGI [1] [µM]	GI50 [2] [µM]	TGI [2] [µM]	GI50 [3] [µM]	TGI [3] [µM]	GI50 [4] [µM]	TGI [4] [µM]	GI50 [5] [µM]	TGI [5] [µM]	GI50 [6] [µM]	TGI [6] [µM]	GI50 [7] [µM]	TGI [7] [µM]	GI50 [8] [µM]	TGI [8] [µM]	GI50 [9] [µM]	TGI [9] [µM]	GI50 [10] [µM]	TGI [10] [µM]
Cl.Fc1c[c-]c(-c2ccccn2)c(F)c1.[Pt].c1ccc([PH+](C[PH+](c2ccccc2)c2ccccc2)c2ccccc2)cc1	0.251	0.741	0.239	0.721	0.269	0.829	0.303	1.73	0.161	0.544	0.261	1.05	–	–	–	–	–	–	–	–
Cc1nc2ccccc2nc1N=Nc1ccccc1	23.4	> 100	–	–	25.2	73.4	22.4	> 100	12.2	42.8	10.9	> 100	9.58	> 100	6.38	> 100	20.8	65.7	25	> 100
COc1cc2ccnc3c(=C(SC)SC)c(=O)c(c1OC)c23	–	26.6	–	–	–	30.8	–	22.7	–	15.9	–	–	–	47.5	–	> 100	–	24.7	–	17
COc1c(N2CCN(CN3C(=O)C(=O)c4cc(Cl)ccc43)C(C)C2)c(F)cc2c(=O)c(C(=O)O)cn(C3CC3)c12 (centres undefined)	34.4	> 100	11.9	80.9	27.7	72.9	51.9	> 100	9.07	25.7	13.7	> 100	> 100	> 100	91.7	> 100	–	–	–	–
Cc1ccc(-n2nnnc2-c2cnc(N3CCOCC3)nc2-c2cccc(C(F)(F)F)c2)cc1	1.99	> 14.5	2.71	17.1	4.88	> 30.5	2.83	> 22.5	1.28	3.77	3.93	> 50	1.63	> 10.7	1.1	3.65	–	–	1.1	2.55
NC(=O)NC1C(C(=O)O)N(Cc2ccccc2)C(=O)N1Cc1ccccc1 (centres undefined)	–	–	–	–	–	> 100	–	> 100	–	> 100	–	> 100	–	> 100	–	> 100	–	> 100	–	> 100
CC(C)(C)N/N=C(\C(=O)NC1=C(Cl)C(=O)c2ccccc2C1=O)C1C=CCS1(=O)=O (centres undefined)	–	–	–	36.7	–	26.5	–	72	–	> 100	–	30.2	–	24.5	–	25.1	–	6.44	–	> 100
O=C1c2cccnc2C(=O)c2c1c(C(=O)OCCCN1CCCCC1)c1ccccn21	< 0.0108	< 0.019	–	–	< 0.01	0.0549	0.0102	1.19	0.0609	–	0.0351	0.253	0.0309	0.686	0.01	0.0383	< 0.0158	0.0682	0.0706	–
CCN1C(=NCCO)NS(=O)(=O)c2ccccc21	–	> 100	–	> 100	–	> 100	–	> 100	–	–	–	> 100	–	> 100	–	> 100	–	–	–	> 100
Cn1cc(C(=O)c2ccccc2)cc(C(=O)c2ccccc2)c1=O	–	> 100	–	–	–	> 100	–	> 100	–	> 100	–	> 100	–	> 100	–	> 100	–	> 100	–	> 100
CC1(C)Cc2c(Br)c(Br)c(Br)c(OCC(O)CN3CCN(c4ccccn4)CC3)c2O1 (centres undefined)	–	–	14.8	29.5	16.6	39.7	20.9	45.3	–	–	11.3	43.2	10.7	26	6.11	21.4	17	36.9	3.81	> 100
Cc1ccc(NC(=O)CCc2n[nH]c(=S)o2)cc1	–	> 100	–	> 100	–	> 100	–	> 100	–	–	–	> 100	–	> 100	–	> 100	–	> 100	–	> 100
COCCOCCOCCOc1cccc2c1C(=O)c1cccc(OCCOCCOCCOC)c1C2=O	–	> 100	–	> 100	–	> 100	–	> 100	–	> 100	–	> 100	–	> 100	–	> 100	–	–	–	> 100
CCOc1ccc2c(c1)c(CC(=O)O)cn2C	–	> 100	–	–	–	> 100	–	> 100	–	> 100	–	> 100	–	–	–	> 100	–	> 100	–	> 100
COc1cc2oc3c(c(=O)c2c(O)c1/C=C/C(C)C)C(C=C(C)C)Oc1cc(O)ccc1-3 (centres undefined)	–	–	–	40.3	–	32.6	–	30.8	–	33.9	–	30.3	–	27.7	–	31.4	–	38.9	–	30.4
CC(=O)c1ccc(NC(=O)COC(=O)c2cccc3c(=O)c4ccccc4[nH]c23)cc1	–	> 100	–	> 100	–	> 100	–	> 100	–	–	–	> 100	–	> 100	–	49.2	–	> 100	–	> 100
COc1ccc(NC(=O)CC(=O)n2nc(C)c(N=Nc3ccccc3C(=O)O)c2C)cc1	–	–	–	> 100	–	> 100	–	> 100	–	> 100	–	> 100	–	> 100	–	> 100	–	> 100	–	> 100
CCCCOC1OC(COC(=O)C(C)C)C(OC(=O)C(C)C)C(O)C1OC1OC(C)C(OC(=O)CCC)C(OC(=O)C(C)C)C1O (centres undefined)	8.41	31.2	–	–	18.5	32.5	19.6	37.8	2.27	8.95	12.5	25.2	22.7	58.5	14.4	27.5	19.5	35.2	10.8	24.1
OCCN(CCO)c1cccc(N(CCO)CCO)n1	–	> 100	–	> 100	–	> 100	–	> 100	–	> 100	–	> 100	–	–	–	> 100	–	–	–	> 100
CCCCNc1ccc(Nc2ccccc2)cc1	–	–	11.4	> 100	–	–	–	–	1.72	4.86	3.53	> 100	5.61	27.2	4.63	64.4	3.8	28.8	2.93	> 100
CC(=O)O[C@H]1CC[C@@]2(C)C(=C/C(=N/OCCN3CCCC3)[C@H]3[C@@H]4CC[C@H](OC(C)=O)[C@@]4(C)CC[C@@H]32)C1	–	–	76.7	> 100	–	–	> 100	> 100	22	53.3	> 100	> 100	31.4	> 100	26.1	66.1	18	36.1	42.9	> 100
CC([O-])=C1C(=O)c2ccccc2C1=O.CC([O-])=C1C(=O)c2ccccc2C1=O.CC[O-].CC[O-].[Ti+4]	–	–	> 100	> 100	> 100	> 100	> 100	> 100	> 100	> 100	> 100	> 100	> 100	> 100	> 100	> 100	> 100	> 100	> 100	> 100
COC(=O)Cc1cc(=O)[nH]c2c1C(=O)CCC2	–	> 100	–	–	–	> 100	–	> 100	–	> 100	–	> 100	–	> 100	–	> 100	–	> 100	–	> 100
O=c1c2cc3c(cc2c2cccc4c2n1CCC4)OCO3	–	92.2	–	–	–	> 100	–	> 100	–	> 100	–	99.5	–	> 100	–	> 100	–	> 100	–	> 100
CN(CCC(=O)/C(=C\c1ccccc1)c1ccc(Cl)cc1)Cc1ccccc1	1.86	3.69	3.45	12.6	10.7	24.2	3.32	14.8	–	–	5.37	18.8	–	–	2.76	7.5	3.23	11.8	1.44	6.91
COc1ccc(-c2csc(NC(=O)CN3CCN(c4cc5c(cc4F)c(=O)c(C(=O)O)cn5C4CC4)CC3)n2)cc1	4.97	27.7	–	–	–	–	3.2	> 100	2.69	> 100	4.39	> 100	7	> 100	2.73	15.9	2.37	7.49	3.59	> 100
CCC(C)C(=O)OCC(=O)c1ccc(-c2ccccc2)cc1 (centres undefined)	–	–	–	> 100	–	87.4	–	> 100	–	71.5	–	84.4	–	> 100	–	> 100	–	> 100	–	> 100
